The assay addresses T1, Recombinant human ASK1 kinase (Homo sapiens, UniProt Q99683).
T1 construct: purchased Invitrogen Inc
T1 sequence (Q99683 1-1374): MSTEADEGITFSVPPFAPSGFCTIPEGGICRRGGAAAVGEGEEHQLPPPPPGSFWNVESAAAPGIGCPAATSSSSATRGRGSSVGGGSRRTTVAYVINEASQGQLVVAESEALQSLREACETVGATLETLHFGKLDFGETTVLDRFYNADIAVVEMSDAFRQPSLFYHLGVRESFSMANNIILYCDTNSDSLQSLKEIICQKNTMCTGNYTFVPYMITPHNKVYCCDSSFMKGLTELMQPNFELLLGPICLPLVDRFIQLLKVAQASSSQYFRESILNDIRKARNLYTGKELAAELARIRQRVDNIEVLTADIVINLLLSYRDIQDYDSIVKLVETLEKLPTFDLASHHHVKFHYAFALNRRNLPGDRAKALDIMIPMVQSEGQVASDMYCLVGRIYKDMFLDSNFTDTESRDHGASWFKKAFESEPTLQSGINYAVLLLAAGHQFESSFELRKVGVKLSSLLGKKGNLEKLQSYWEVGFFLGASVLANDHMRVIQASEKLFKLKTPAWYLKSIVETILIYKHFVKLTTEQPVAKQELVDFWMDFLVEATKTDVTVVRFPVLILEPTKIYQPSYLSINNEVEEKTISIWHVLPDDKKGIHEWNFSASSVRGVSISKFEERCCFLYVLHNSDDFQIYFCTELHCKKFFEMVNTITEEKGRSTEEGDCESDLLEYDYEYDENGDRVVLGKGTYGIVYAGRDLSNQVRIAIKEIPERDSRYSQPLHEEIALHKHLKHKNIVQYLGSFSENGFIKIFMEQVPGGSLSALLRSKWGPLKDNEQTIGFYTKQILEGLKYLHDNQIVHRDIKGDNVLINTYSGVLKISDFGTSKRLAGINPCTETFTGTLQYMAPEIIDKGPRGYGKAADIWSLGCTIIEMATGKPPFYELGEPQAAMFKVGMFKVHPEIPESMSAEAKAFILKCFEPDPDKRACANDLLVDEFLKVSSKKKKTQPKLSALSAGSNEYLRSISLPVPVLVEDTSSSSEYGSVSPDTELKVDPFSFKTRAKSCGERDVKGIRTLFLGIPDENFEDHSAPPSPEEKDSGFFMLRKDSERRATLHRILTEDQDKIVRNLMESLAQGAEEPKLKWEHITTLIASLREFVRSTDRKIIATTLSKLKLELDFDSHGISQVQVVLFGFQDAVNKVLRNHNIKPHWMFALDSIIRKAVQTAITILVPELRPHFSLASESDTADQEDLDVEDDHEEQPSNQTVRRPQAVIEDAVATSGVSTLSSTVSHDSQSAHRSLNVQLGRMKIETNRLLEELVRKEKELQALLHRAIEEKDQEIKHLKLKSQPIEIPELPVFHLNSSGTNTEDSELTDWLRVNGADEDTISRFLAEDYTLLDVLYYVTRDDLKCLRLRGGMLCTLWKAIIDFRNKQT
Nature of the assay: ASK1 kinase HTRF assay (KinEASE-STK). It is filed as biochemical. The note with it: HTRF detection; 3 nM ASK1 kinase, 1 uM STK-substrate-biotin. As to the method:
Reagents: Recombinant human ASK1 kinase was from Invitrogen Inc. HTRF KinEASE™-STK S3 kit was obtained from Cisbio (Bedford, Mass.). All other reagents were of the highest grade commercially available.
Assay: The assay measures the phosphorylation level of a biotinylatd peptide substrate by the ASK1 kinase using HTRF detection. ASK1 kinase assay is based on HTRF KinEASE™-STK manual from Cisbio. Test compound, 1 uM STK-substrate-biotin, 3 nM of ASK1 kinase are incubated with 1*Kinase buffer with 5 mM MgCl2 and 1 mM DTT. 250 nM Sa-XL 665(4*) and STK-antibody-Cryptate work solution are added to stop the reaction and phosphorylated peptide substrate is detected using Envision 2104 Multilabeled reader from PerkinElmer. The fluorescence is measured at 615 nm (Cryptate) and 665 nm (XL665) and a ratio of 665 nm/615 nm is calculated for each well. The resulting TR-FRET level (a ratio of 665 nm/615 nm) is proportional to the phosphorylation level of substrate.
A general note: In TR-FRET formats the signal depends on donor and acceptor labels being close together.
As a reminder, the EC50 is the concentration giving half of the maximal effect. Turning to `CC(C)n1cnnc1-c1cccc(-c2ncc(-c3cccc(-c4ccncc4)c3)o2)n1` [Compound I-108], the EC50 is not above 50 nM.
As for `CC(C)n1cnnc1-c1cccc(-c2ncc(-c3cccc(C4CCOCC4)c3)o2)n1` [Compound I-109], the EC50 is not above 50 nM.
The figure for `CC(C)n1cnnc1-c1cccc(-c2ncc(-c3cccc(N4CCOCC4)c3)o2)n1` [Compound I-110] is not above 50 nM; for `C[C@H](CO)n1cnnc1-c1cccc(-c2ncc(-c3cccc(N4CCOCC4)c3)o2)n1` [Compound I-111] it is not above 50 nM.
Consider `CC(C)n1cnnc1-c1cccc(-c2ncc(-c3ccc(N4CCOCC4)cc3F)o2)n1` [Compound I-112], for which the EC50 is 500 to 5000 nM.
With `CC(C)n1cnnc1-c1cccc(-c2ncc(-c3cccc(N4CCNCC4)c3)o2)n1` [Compound I-113], the EC50 is not above 50 nM.
As for `C[C@H](CO)n1cnnc1-c1cccc(-c2ncc(-c3cccc(N4CCNCC4)c3)o2)n1` [Compound I-114], the figure is not above 50 nM; as for `CC(C)n1cnnc1-c1cccc(-c2ncc(-c3cccc(N4CCN(C)CC4)c3)o2)n1` [Compound I-115], not above 50 nM; as for `C[C@H](CO)n1cnnc1-c1cccc(-c2ncc(-c3cccc(N4CCN(C)CC4)c3)o2)n1` [Compound I-116], not above 50 nM.
As for `CC(C)N1CCN(c2cccc(-c3cnc(-c4cccc(-c5nncn5C(C)C)n4)o3)c2)CC1` [Compound I-117], the figure is not above 50 nM; as for `CC(C)n1cnnc1-c1cccc(-c2ncc(-c3cccc(N4CCN(C5CC5)CC4)c3)o2)n1` [Compound I-118], not above 50 nM; as for `CC(C)n1cnnc1-c1cccc(-c2ncc(-c3cccc(N4CCN(S(C)(=O)=O)CC4)c3)o2)n1` [Compound I-119], not above 50 nM.
As for `CC(C)n1cnnc1-c1cccc(-c2ncc(-c3cccc(N4CCCCC4)c3)o2)n1` [Compound I-120], the figure is 50 to 500 nM.
Take `CC(C)n1cnnc1-c1cccc(-c2ncc(-c3cccc(N4C5CCCC4CC5)c3)o2)n1` [Compound I-121]: the EC50 was 50 to 500 nM.
The figure for `CC(C)n1cnnc1-c1cccc(-c2ncc(-c3cccc(N4CCC(N5CCOCC5)CC4)c3)o2)n1` [Compound I-122] is 50 to 500 nM; for `CC(C)n1cnnc1-c1cccc(-c2ncc(-c3cccc(C4CCNCC4)c3)o2)n1` [Compound I-123] it is not above 50 nM.
As for `CC(C)n1cnnc1-c1cccc(-c2ncc(-c3cccc(C4=CCN(C(=O)OC(C)(C)C)C4)c3)o2)n1` [Compound I-124], the figure is 50 to 500 nM; as for `CC(C)n1cnnc1-c1cccc(-c2ncc(-c3cccc(N4CCCC4)c3)o2)n1` [Compound I-125], not above 50 nM; as for `C[C@H](CO)n1cnnc1-c1cccc(-c2ncc(-c3cccc(N4CCCC4)c3)o2)n1` [Compound I-126], not above 50 nM.
The figure for `CC(C)n1cnnc1-c1cccc(-c2ncc(-c3cccc(N4CCC(N)C4)c3)o2)n1` (stereo not shown) [Compound I-127] is not above 50 nM; for `CC(C)n1cnnc1-c1cccc(-c2ncc(-c3cccc(N4CCC(NC(=O)OC(C)(C)C)C4)c3)o2)n1` (stereo not shown) [Compound I-128] it is not above 50 nM; for `C[C@H](CO)n1cnnc1-c1cccc(-c2ncc(-c3cccc(C4CCCCC4)c3)o2)n1` [Compound I-129] it is not above 50 nM.
Turning to `C[C@H](CO)n1cnnc1-c1cccc(-c2ncc(-c3cccc(C4=CCCCC4)c3)o2)n1` [Compound I-130], the EC50 was 50 to 500 nM.
As for `CC(C)n1cnnc1-c1cccc(-c2ncc(-c3cccc(C4CCCCC4)c3)o2)n1` [Compound I-131], the figure is 500 to 5000 nM; as for `CC(C)n1cnnc1-c1cccc(-c2ncc(-c3cccc(C4=CCCCC4)c3)o2)n1` [Compound I-132], 50 to 500 nM.
As to `CC(C)n1cnnc1-c1cccc(-c2ncc(-c3cccc(C4CCCC4)c3)o2)n1` [Compound I-133], the EC50 lay in the range of 50 to 500 nM.
The figure for `CC(C)n1cnnc1-c1cccc(-c2ncc(-c3cccc(C4=CCCC4)c3)o2)n1` [Compound I-134] is 50 to 500 nM; for `C[C@H](CO)n1cnnc1-c1cccc(-c2ncc(-c3cccc(C4CCCC4)c3)o2)n1` [Compound I-135] it is not above 50 nM; for `C[C@H](CO)n1cnnc1-c1cccc(-c2ncc(-c3cccc(C4=CCCC4)c3)o2)n1` [Compound I-136] it is not above 50 nM.
The figure for `CC(C)n1cnnc1-c1cccc(-c2ncc(-c3cccc(C4=CCCCCC4)c3)o2)n1` [Compound I-138] is 50 to 500 nM; for `CC(C)n1cnnc1-c1cccc(-c2ncc(-c3nccs3)o2)n1` [Compound I-141] it is 50 to 500 nM; for `CC(C)n1cnnc1-c1cccc(-c2ncc(-c3nc4ccccc4o3)o2)n1` [Compound I-142] it is 50 to 500 nM.
The figure for `CC(C)n1cnnc1-c1cccc(-c2ncc(-c3cccc(-n4cnc(C5CC5)c4)c3)o2)n1` [Compound I-144] is not above 50 nM.
`CC(C)n1cnnc1-c1cc(-c2ncc(-c3ccccc3)o2)cs1` [II-01, 3-[4-(5-Phenyl-1,3-oxazol-2-yl)thiophen-2-yl]-4-(propan-2-yl)-4H-1,2,4-triazole]: the EC50 fell in the range of 50 to 500 nM.

Source of the values: patent US20210179600A1, “OXAZOLE AND THIAZOLE DERIVATIVES AS INHIBITORS OF ASK1” (Hepagene Therapeutics (HK) Limited, priority 2017, published 2021).
